In the test the target is T1, human cathepsin B (Homo sapiens, UniProt P07858).
T1 construct: gene CTSB
The experiment in a line: fluorogenic Z-RR-AMC hydrolysis assay with recombinant enzyme, without and with […] Triton X-[…] with detergent. The format is biochemical.

As to `Cc1cc2nc3c(=O)[nH]c(=O)nc-3n(C[C@H](O)[C@H](O)[C@H](O)CO)c2cc1C` [RBF, riboflavin], the IC50 was found to be 12.1 ± 1.86 µM.

One may read the IC50 as the midpoint of a concentration-inhibition curve.

For the origin of these results see publication PMC11170711, “Pharmacophore Virtual Screening Identifies Riboflavin as an Inhibitor of the Schistosome Cathepsin B1 Protease with Antiparasitic Activity” (ACS Omega, 2024).
